The test deals with T1, human CaSR (Homo sapiens, UniProt P41180).
T1 sequence (P41180 20-1078): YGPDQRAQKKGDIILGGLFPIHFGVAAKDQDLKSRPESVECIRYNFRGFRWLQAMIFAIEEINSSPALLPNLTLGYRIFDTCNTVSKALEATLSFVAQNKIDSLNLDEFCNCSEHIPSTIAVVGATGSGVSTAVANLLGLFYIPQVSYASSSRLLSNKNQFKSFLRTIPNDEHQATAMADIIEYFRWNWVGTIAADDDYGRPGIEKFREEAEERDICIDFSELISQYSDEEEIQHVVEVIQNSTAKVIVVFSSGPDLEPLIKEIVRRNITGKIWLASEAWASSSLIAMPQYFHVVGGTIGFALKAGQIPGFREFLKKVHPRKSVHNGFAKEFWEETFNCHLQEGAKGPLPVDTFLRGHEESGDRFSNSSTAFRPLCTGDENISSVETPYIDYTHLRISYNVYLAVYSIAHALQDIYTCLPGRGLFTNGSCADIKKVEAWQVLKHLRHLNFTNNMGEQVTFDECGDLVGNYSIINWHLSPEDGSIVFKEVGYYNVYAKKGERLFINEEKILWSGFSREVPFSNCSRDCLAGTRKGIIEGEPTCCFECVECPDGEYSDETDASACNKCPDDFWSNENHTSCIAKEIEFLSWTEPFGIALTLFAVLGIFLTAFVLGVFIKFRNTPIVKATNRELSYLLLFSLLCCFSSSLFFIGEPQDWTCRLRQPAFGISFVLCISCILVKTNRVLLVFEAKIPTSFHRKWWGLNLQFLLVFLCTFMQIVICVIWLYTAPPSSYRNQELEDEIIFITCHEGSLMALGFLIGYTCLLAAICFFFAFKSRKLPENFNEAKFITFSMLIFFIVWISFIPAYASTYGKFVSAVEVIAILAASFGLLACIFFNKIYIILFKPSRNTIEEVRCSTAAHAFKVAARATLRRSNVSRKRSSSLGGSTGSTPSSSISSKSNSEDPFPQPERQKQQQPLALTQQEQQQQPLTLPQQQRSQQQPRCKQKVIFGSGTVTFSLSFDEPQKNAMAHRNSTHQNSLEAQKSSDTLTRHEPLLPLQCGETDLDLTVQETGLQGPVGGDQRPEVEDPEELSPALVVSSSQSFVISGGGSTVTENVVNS
The experiment in a line: Functional whole cell assay (modulation of human CaSR), IP1 accumulation in CHO-K1 cells. It counts as cell-based. The settings on record: CHO-K1 cells stably expressing human CaSR, final Ca2+ 1.9 mM, IP1 (IP-One htrf). The source says:
The assay investigates a compound's functional ability to act as a biological positive modulator on the human CaSR. Activation of the receptor expressed on CHO-K1 cells is detected through the G alpha q pathway, the activation of phospholipase C and the accumulation of intracellular inositol phosphate (IP) as described earlier [Sandrine Ferry, Bruno Chatel, Robert H. Dodd, Christine Lair, Danielle Gully, Jean-Pierre Maffrand, and Martial Ruat. Effects of Divalent Cations and of a Calcimimetic on Adrenocorticotropic Hormone Release in Pituitary Tumor Cells. Biological and Biophysical Research Comm., 238, 866-873 (1997)]. The human CaSR is stably expressed on a CHO-K1 cell clone, stimulated with a basal level of calcium and challenged with the tested compound. The level of IP1 is determined using the IP-One Terbium htrf kit (Cisbio, France). CHO-K1 cells not transfected with the CaSR fail to elicit an IP1 response upon calcium and/or compound stimulation.
The ORF coding for the human CaSR (genebank: NM_000388) was acquired from Invitrogen Corp, USA and subsequently cloned into the mammalian expression vector pCDA3.1.
CHO-K1 cells were transfected using Lipofectamine according to manufacturer's protocol (400.000 cells/well were seeded in a 6-well plate and transfected after 24 hours using 2 μg DNA and 5 μl lipofectamine). After another 24 hours the cells were detached, seeded and subjected to 1mg/ml of G-418. Following 7 days growth single clones were picked, the CaSR expression evaluated using the 5C10 antibody against CaSR, the clones with the highest expression were selected and tested for functional response. The preferred clone was cultured according to standard procedures described in ATCC (American Type Culture Collection) protocols for CHO-K1 with the addition of 500 μg/ml G-418.
On the assay day, cells were thawed, harvested and resuspended to 4*10^6 cells/ml in stimulation buffer (containing: Hepes 10mM, MgCl2 0.5mM, KCl 4.2 mM, NaCl 146 mM, glucose 5.5 mM, LiCl 50 mM, BSA 0.5% at pH 7.4). Ten μl cell solution was pipetted into wells of a white 384-well plate (Perkin Elmer Optiplate) containing 2 μl compound diluted in assay buffer (containing: Hepes 10 mM, MgCl2 0.5mM, KCl 4.2mM, NaCl 146mM, glucose 5.5 mM, LiCl 50 mM, CaCl2 11.4 mM at pH 7.4), resulting in a final Ca^2+ concentration of 1.9 mM. After compound stimulation for 1 hour at 37° C. and 15 min at room temperature, 10 ul of IP-One assay detection reagent (prepared as described by the IP-One assay kit manufacturer) was added and the plate was incubated for another 1 hour at room temperature. Finally the plate was read using a Perkin Elmer EnVision, according to the protocol supplied by the IP-One assay kit manufacturer. The FRET ratio was calculated by dividing the 665 nm emission signal with that of the 615 nm.
The molar concentration of a compound that produces 50% of the maximum agonistic response (the […] value) is calculated according to the equation “General sigmoidal curve with Hill slope, a to d” (Equation 1). This model describes a sigmoidal curve with an adjustable baseline. The equation can be used to fit curves where response is either increasing or decreasing with respect to the independent variable, X. […]
y=(a−d)/(1+(x/c)̂b)+d Equation 1. x=concentration of tested compound […]
a=min response as compound concentration approaches 0 d=max response as concentration of tested compound is increasing […]
b=Hill coefficient or curve slope
Assay results using compounds of the present invention indicate that compounds of the present invention are potent modulators of CaSR, thus making them potentially useful in the treatment of diseases related to kidneys or bones.

Each structure is given as a SMILES string. A value given as a limit tells only on which side of the number the result lay.

As to `COc1cc([C@@H](C)N[C@H]2CC[C@@H](c3ccc(CC(=O)N4CC(O)C4)cc3)C2)ccc1F` [Compound 109, 2-[4-[(1R,3S)-3-[[(1R)-1-(4-Fluoro-3-methoxy-phenyl)ethyl]amino]-cyclopentyl]phenyl]-1-(3-hydroxyazetidin-1-yl)ethanone], the EC50 was < 200 nM.

`COc1cc([C@@H](C)N[C@H]2CC[C@@H](c3ccc(CC(=O)N4CCCNCC4)cc3)C2)ccc1F` [Compound 110, 1-(1,4-Diazepan-1-yl)-2-[4-[(1R,3S)-3-[[(1R)-1-(4-fluoro-3-methoxy-Phenyl)ethyl]amino]cyclopentyl]phenyl]ethanone]: the EC50 is < 200 nM.

Take `CCOc1cccc([C@@H](C)N[C@H]2CC[C@@H](c3ccc(CC(=O)NCCS(N)(=O)=O)cc3)C2)c1` [Compound 106, 2-[4-[(1R,3S)-3-[[(1R)-1-(3-Ethoxyphenyl)ethyl]amino]cyclopentyl]phenyl]-N-(2-sulfamoylethyl)acetamide]: the EC50 was < 200 nM.

Regarding `COc1cc([C@@H](C)N[C@H]2CC[C@@H](c3ccc(CC(=O)NCCS(N)(=O)=O)cc3)C2)ccc1F` [Compound 103, 2-[4-[(1R,3S)-3-[[(1R)-1-(4-Fluoro-3-methoxy-phenyl)ethyl]amino]-cyclopentyl]phenyl]-N-(2-sulfamoylethyl)acetamide; formic acid], the EC50 was < 200 nM.

Take `COc1cc([C@@H](C)N[C@H]2CC[C@@H](c3ccc(CC(=O)NCCNCCO)cc3)C2)ccc1F` [Compound 108, 2-[4-[(1R,3S)-3-[[(1R)-1-(4-Fluoro-3-methoxy-phenyl)ethyl]amino]-cyclopentyl]phenyl]-N-[2-(2-hydroxyethylamino)ethyl]acetamide]: the EC50 was < 200 nM.

For the compound `COc1cc([C@@H](C)N[C@H]2CC[C@@H](c3ccc(CC(=O)NCCNS(C)(=O)=O)cc3)C2)ccc1F` [Compound 102, 2-[4-[(1R,3S)-3-[[(1R)-1-(4-Fluoro-3-methoxy-phenyl)ethyl]amino]-cyclopentyl]phenyl]-N-[2-(methanesulfonamido)ethyl]acetamide; formic acid], the EC50 lay within 200 to 1000 nM.

For `COc1cc([C@@H](C)N[C@H]2CC[C@@H](c3ccc(CC(=O)N4CCC(N)CC4)cc3)C2)ccc1F` [Compound 112, 1-(4-Amino-1-piperidyl)-2-[4-[(1R,3S)-3-[[(1R)-1-(4-fluoro-3-methoxy-phenyl)ethyl]amino]cyclopentyl]phenyl]ethanone], the EC50 is < 200 nM.

Turning to `C[C@@H](N[C@H]1CC[C@@H](c2ccc(CC(=O)NCCS(N)(=O)=O)cc2)C1)c1cccc2c1OCO2` [Compound 104, 2-[4-[(1R,3S)-3-[[(1R)-1-(1,3-Benzodioxol-4-yl)ethyl]amino]-cyclo-pentyl]-phenyl]-N-(2-sulfamoylethyl)acetamide], the EC50 is < 200 nM.

The record behind these values is US20130244995A1, “CALCIUM-SENSING RECEPTOR-ACTIVE COMPOUNDS” (LEO PHARMA A/S, priority 2010, published 2013).
